Measurements as given in patent US20060276510A1, “Dihydropyridine compounds and compositions for headaches” (priority 2005, published 2006).

What was measured:
[1] = two hours after infusion; patients; cited from earlier work
[2] = tested on: carrageenan-induced thermal hyperalgesia; assay: rat carrageenan-induced inflammatory pain model (thermal hyperalgesia, hind paw withdrawal latency); format: in vivo, Male Wistar rats; conditions: for effect on induced hyperalgesia (withdrawal latency of ipsilateral, carrageenan-injected hind paw): 1 hour after administration
Experimental: Anti-migraine agents are commonly evaluated using the carrageenan-induced thermal hyperalgesia model (Bingham et al, Experimental Neurology, 167:65-73 (2001); Daher et al, Life Sciences, 76:2349-2359 (2005)).
Male Wistar rats (5/group) were used for the experiment. Withdrawal latency to escape from heat noxious stimuli on both hind paws of the rats was measured using TAIL FLICK 7360 (Ugo Basile, Italy). 1% Carageenan was injected into the right hind paw footpat of the rats. […] The withdrawal latency from heat stimuli of both hind paws of rats was measured 1, 3 and 5 hours after drug administration.
The effect of carrageenan was observed during all of the experiment period.

Structure (SMILES)	efficacy rate for a sustained response [1] [%]	effect on induced hyperalgesia (withdrawal latency of ipsilateral, carrageenan-injected hind paw) ([2]; 3 mg/kg orally, FIG. 1)	effect on induced hyperalgesia (withdrawal latency of ipsilateral, carrageenan-injected hind paw) ([2]; 6 mg/kg orally, FIG. 1)	course of the anti-hyperalgesic effect (ipsilateral hind paw) ([2]; 3 and 6 mg/kg orally, 3 and 5 hours after administration, FIG. 1)	withdrawal latency of contralateral hind paw ([2]; orally, contralateral (left) hind paw, FIG. 2)	effect on motor function (suggested from unchanged contralateral latency) ([2]; rats, orally, FIG. 2)
CNS(=O)(=O)Cc1ccc2[nH]cc(CCN(C)C)c2c1 [sumatriptan]	87	–	–	–	–	–
O=C(O)[C@@H]1C[C@H]2C[C@@H](CCc3nn[nH]n3)CC[C@H]2CN1 [LY293558]	69	–	–	–	–	–
N#Cc1ccccc1-c1cc(-c2ccccn2)cn(-c2ccccc2)c1=O [Compound A, 2-(2-oxo-1-phenyl-5-pyridin-2-yl-1,2-dihydropyridin-3-yl)benzonitrile]	–	inhibited induced hyperalgesia	inhibited induced hyperalgesia	declined	did not change the latency	did not affect motor function
